Experimental data from patent US8846713B2, “Fused heterocyclic compounds as phosphodiesterases (PDEs) inhibitors” (Takeda Pharmaceutical Company Limited, priority 2010, dated 2014).

Legend:
Human PDE10A enzyme = target: T1, Human PDE10A enzyme (Homo sapiens, UniProt Q9Y233); assay: PDE enzyme inhibition, SPA (Scintillation Proximity Assay) with [3H]cGMP; type: biochemical; settings: [3H]cGMP substrate; for inhibition at 1 µM: compound 1 μM, read-out: Percent inhibition (1 μM); for inhibition at 10 µM: compound 10 μM, read-out: Percent inhibition (10 μM)
T1 construct: transfected with the full-length gene; His-tag; made in house; host or cells: Sf9 or COS-7 cells
T1 sequence (Q9Y233 267-1055): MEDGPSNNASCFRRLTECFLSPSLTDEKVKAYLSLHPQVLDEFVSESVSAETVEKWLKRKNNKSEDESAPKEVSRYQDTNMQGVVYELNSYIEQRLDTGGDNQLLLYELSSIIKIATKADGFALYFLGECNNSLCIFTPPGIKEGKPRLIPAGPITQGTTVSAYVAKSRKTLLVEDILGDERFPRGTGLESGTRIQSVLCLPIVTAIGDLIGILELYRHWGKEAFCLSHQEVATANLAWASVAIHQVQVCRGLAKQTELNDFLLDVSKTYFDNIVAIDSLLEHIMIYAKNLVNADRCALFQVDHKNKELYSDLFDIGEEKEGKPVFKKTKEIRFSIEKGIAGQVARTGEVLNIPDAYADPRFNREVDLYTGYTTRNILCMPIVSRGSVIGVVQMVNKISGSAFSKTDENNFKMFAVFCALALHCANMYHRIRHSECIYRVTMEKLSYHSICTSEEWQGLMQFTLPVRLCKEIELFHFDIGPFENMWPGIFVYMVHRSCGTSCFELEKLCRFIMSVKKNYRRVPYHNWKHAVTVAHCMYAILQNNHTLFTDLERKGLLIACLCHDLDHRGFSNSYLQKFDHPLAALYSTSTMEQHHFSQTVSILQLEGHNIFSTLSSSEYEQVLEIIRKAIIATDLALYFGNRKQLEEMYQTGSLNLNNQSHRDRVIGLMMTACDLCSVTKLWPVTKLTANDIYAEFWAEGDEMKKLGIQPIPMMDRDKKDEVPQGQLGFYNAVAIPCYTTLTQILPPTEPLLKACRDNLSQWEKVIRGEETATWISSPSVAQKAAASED
Description: Human PDE10A enzyme was generated from Sf9 or COS-7 cells transfected with the full-length gene. Cloned enzyme was extracted from homogenized cell pellets. The extracted enzyme from sf9 cells was partially purified using His-tag affinity column. The enzyme was stored at −70° C. until use. PDE activity was measured using a SPA (Scintillation Proximity Assay) (GE Healthcare). To evaluate the inhibitory activity, 10 μL of serial diluted compounds were incubated with 20 μL of PDE enzyme in assay buffer (50 mM HEPES-NaOH, 8.3 mM MgCl2, 1.7 mM EGTA, 0.1% BSA (pH 7.4)) for 30 min. at room temperature. Final concentration of DMSO in the assay was 1 percent as compounds were tested in duplicate in 96-well half-area plates (Corning). To start the reaction, 10 μL of substrate [^3H] cGMP (25 or 50 nM; enclosed in SPA kits from GE Healthcare or purchased from PerkinElmer, respectively) was added for a final assay volume of 40 μL. After 60 min incubation at room temperature, yttrium SPA beads containing Zinc sulphate were added (20 μL at 6 mg/mL) to terminate the PDE reaction. After being settled for 60 min, assay plates were counted in a scintillation counter (PerkinElmer) to allow calculation of inhibition rate. Inhibition rate was calculated on the basis of 0% control wells with DMSO and 100% control wells without enzyme.

Row | inhibition at 1 µM (Human PDE10A enzyme) [%] | inhibition at 10 µM (Human PDE10A enzyme) [%] | melting point [°C] | Compound
1 | 102 | 104 | 217 to 219 | CCn1c(=O)n(-c2ccc(Oc3nc4cccnc4n3C)cc2)c2ncc(C)cc21 [Example 118, 1-ethyl-6-methyl-3-{4-[(3-methyl-3H-imidazo[4,5-b]pyridin-2-yl)oxy]phenyl}-1,3-dihydro-2H-imidazo[4,5-b]pyridin-2-one]
2 | 101 | 101 | 195 to 197 | CCn1c(=O)n(-c2ccc(Oc3nc4cccnc4n3C)cc2)c2ncc(OC(F)F)cc21 [Example 127, 6-(difluoromethoxy)-1-ethyl-3-{4-[(3-methyl-3H-imidazo[4,5-b]pyridin-2-yl)oxy]phenyl}-1,3-dihydro-2H-imidazo[4,5-b]pyridin-2-one]
3 | 89 | 96 | 178 to 179 | CCn1c(=O)n(-c2ccc(Oc3nc4cccnc4n3C)cc2)c2ncc(OCC(F)(F)F)cc21 [Example 129, 1-ethyl-3-{4-[(3-methyl-3H-imidazo[4,5-b]pyridin-2-yl)oxy]phenyl}-6-(2,2,2-trifluoroethoxy)-1,3-dihydro-2H-imidazo[4,5-b]pyridin-2-one]
4 | 94 | 91 | 171 to 172 | CCn1c(=O)n(-c2ccc(Oc3nc4cccnc4n3C)cc2)c2ncc(OCC(F)F)cc21 [Example 128, 6-(2,2-difluoroethoxy)-1-ethyl-3-{4-[(3-methyl-3H-imidazo[4,5-b]pyridin-2-yl)oxy]phenyl}-1,3-dihydro-2H-imidazo[4,5-b]pyridin-2-one]
